# Laboratory results published in ChEMBL document CHEMBL1138160, “In vivo stability and photodynamic efficacy of fluorinated bacteriopurpurinimides derived from bacteriochlorophyll-a” (2006).
# How the values were obtained:
# RIF-1 = experiment: Photosensitizing efficacy in RIF cells at 0.6-2.5 uM and light dose of 0-10 J/cm2 by MTT assay; type: functional, cell-based; conditions: Mus musculus
# Mus musculus = experiment: In vivo photosensitizing efficacy in RIF cells of C3H mouse at 1 umol/kg 90 days post-dose; type: functional
compound,measurement,setting,value
CC[C@H]1c2cc3nc4c(c5[nH]c(cc6[nH]c(cc(n2)[C@@H]1C)c(C(C)NCc1cc(C(F)(F)F)cc(C(F)(F)F)c1)c6C)[C@@H](C)[C@@H]5CCC(=O)OC)C(=O)N(Cc1cc(C(F)(F)F)cc(C(F)(F)F)c1)C(=O)C4=C3C (some centres not stated),Activity,RIF-1,Dose-dependent effect
same,Activity,Mus musculus,60%
